In article PMC12670405, “Second-Generation AURKA-Targeting PROTACs: Structural Optimization toward in Vivo Degradation in Neuroblastoma” (Journal of Medicinal Chemistry, 2025):

Experiments:
Test in all cases: KINOMEscan scanMAX
Type in all cases: binding
Conditions in all cases: read-out: Percent Control
[1] = target: T1, ABL1(M351T)-phosphorylated (Homo sapiens, UniProt P00519, M351T)
T1 construct: purchased Eurofins Discovery (DiscoverX KINOMEscan scanMAX)
Protocol: (§1) The kinome-wide binding assay was performed by Eurofins Discovery using the scanMAX screening platform. More information can be found on the Eurofins Discovery Web site.

[2] = target: T2, ABL1(Y253F)-phosphorylated (Homo sapiens, UniProt P00519, Y253F)
T2 construct: purchased Eurofins Discovery (DiscoverX KINOMEscan scanMAX)
Protocol: as §1

ACVR1B = target: T3, ACVR1B (Homo sapiens, UniProt P36896)
T3 construct: purchased Eurofins Discovery (DiscoverX KINOMEscan scanMAX)
Protocol: as §1

AURKB = target: T4, AURKB (Homo sapiens, UniProt Q96GD4)
T4 construct: purchased Eurofins Discovery
Protocol: as §1

CDK2 = target: T5, CDK2 (Homo sapiens, UniProt P24941)
T5 construct: purchased Eurofins Discovery (DiscoverX KINOMEscan scanMAX)
Protocol: as §1

CDKL1 = target: T6, CDKL1 (Homo sapiens, UniProt Q00532)
T6 construct: purchased Eurofins Discovery (DiscoverX KINOMEscan scanMAX)
Protocol: as §1

CIT = target: T7, CIT (Homo sapiens, UniProt O14578)
T7 construct: purchased Eurofins Discovery (DiscoverX KINOMEscan scanMAX)
Protocol: as §1

EGFR(G719C) = target: T8, EGFR(G719C) (Homo sapiens, UniProt P00533, G719C)
T8 construct: purchased Eurofins Discovery (DiscoverX KINOMEscan scanMAX)
Protocol: as §1

HASPIN = target: T9, HASPIN (Homo sapiens, UniProt Q8TF76)
T9 construct: purchased Eurofins Discovery (DiscoverX KINOMEscan scanMAX)
Protocol: as §1

HIPK1 = target: T10, HIPK1 (Homo sapiens, UniProt Q86Z02)
T10 construct: purchased Eurofins Discovery (DiscoverX KINOMEscan scanMAX)
Protocol: as §1

HIPK3 = target: T11, HIPK3 (Homo sapiens, UniProt Q9H422)
T11 construct: purchased Eurofins Discovery (DiscoverX KINOMEscan scanMAX)
Protocol: as §1

IRAK1 = target: T12, IRAK1 (Homo sapiens, UniProt P51617)
T12 construct: purchased Eurofins Discovery (DiscoverX KINOMEscan scanMAX)
Protocol: as §1

MEK3 = target: T13, MEK3 (Homo sapiens, UniProt P46734)
T13 construct: purchased Eurofins Discovery (DiscoverX KINOMEscan scanMAX)
Protocol: as §1

MLK3 = target: T14, MLK3 (Homo sapiens, UniProt Q16584)
T14 construct: purchased Eurofins Discovery (DiscoverX KINOMEscan scanMAX)
Protocol: as §1

MYO3B = target: T15, MYO3B (Homo sapiens, UniProt Q8WXR4)
T15 construct: purchased Eurofins Discovery (DiscoverX KINOMEscan scanMAX)
Protocol: as §1

NEK2 = target: T16, NEK2 (Homo sapiens, UniProt P51955)
T16 construct: purchased Eurofins Discovery (DiscoverX KINOMEscan scanMAX)
Protocol: as §1

PFCDPK1(P.falciparum) = target: T17, PFCDPK1(P.falciparum) (Plasmodium falciparum, UniProt P62344)
T17 construct: purchased Eurofins Discovery (DiscoverX KINOMEscan scanMAX)
Protocol: as §1

PFPK5(P.falciparum) = target: T18, PFPK5(P.falciparum) (Plasmodium falciparum, UniProt P61075)
T18 construct: purchased Eurofins Discovery (DiscoverX KINOMEscan scanMAX)
Protocol: as §1

PIP5K1C = target: T19, PIP5K1C (Homo sapiens, UniProt O60331)
T19 construct: purchased Eurofins Discovery (DiscoverX KINOMEscan scanMAX)
Protocol: as §1

PRKR = target: T20, PRKR (Homo sapiens, UniProt P19525)
T20 construct: purchased Eurofins Discovery (DiscoverX KINOMEscan scanMAX)
Protocol: as §1

RIOK1 = target: T21, RIOK1 (Homo sapiens, UniProt Q9BRS2)
T21 construct: purchased Eurofins Discovery (DiscoverX KINOMEscan scanMAX)
Protocol: as §1

[3] = target: T22, RSK3(Kin.Dom.2-C-terminal) (Homo sapiens, UniProt Q15349)
T22 construct: RSK3(Kin.Dom.2-C-terminal); purchased Eurofins Discovery (DiscoverX KINOMEscan scanMAX)
Protocol: as §1

[4] = target: T23, RSK4(Kin.Dom.1-N-terminal) (Homo sapiens, UniProt Q9UK32)
T23 construct: RSK4(Kin.Dom.1-N-terminal); purchased Eurofins Discovery (DiscoverX KINOMEscan scanMAX)
Protocol: as §1

STK35 = target: T24, STK35 (Homo sapiens, UniProt Q8TDR2)
T24 construct: purchased Eurofins Discovery (DiscoverX KINOMEscan scanMAX)
Protocol: as §1

STK36 = target: T25, STK36 (Homo sapiens, UniProt Q9NRP7)
T25 construct: purchased Eurofins Discovery (DiscoverX KINOMEscan scanMAX)
Protocol: as §1

TLK1 = target: T26, TLK1 (Homo sapiens, UniProt Q9UKI8)
T26 construct: purchased Eurofins Discovery (DiscoverX KINOMEscan scanMAX)
Protocol: as §1

TNNI3K = target: T27, TNNI3K (Homo sapiens, UniProt Q59H18)
T27 construct: purchased Eurofins Discovery (DiscoverX KINOMEscan scanMAX)
Protocol: as §1

ULK2 = target: T28, ULK2 (Homo sapiens, UniProt Q8IYT8)
T28 construct: purchased Eurofins Discovery (DiscoverX KINOMEscan scanMAX)
Protocol: as §1

VEGFR2 = target: T29, VEGFR2 (Homo sapiens, UniProt P35968)
T29 construct: purchased Eurofins Discovery (DiscoverX KINOMEscan scanMAX)
Protocol: as §1

WEE2 = target: T30, WEE2 (Homo sapiens, UniProt P0C1S8)
T30 construct: purchased Eurofins Discovery (DiscoverX KINOMEscan scanMAX)
Protocol: as §1

YES = target: T31, YES (Homo sapiens, UniProt P07947)
T31 construct: purchased Eurofins Discovery (DiscoverX KINOMEscan scanMAX)
Protocol: as §1

YSK1 = target: T32, YSK1 (Homo sapiens, UniProt O00506)
T32 construct: purchased Eurofins Discovery (DiscoverX KINOMEscan scanMAX)
Protocol: as §1

T20 sequence (P19525 whole entry): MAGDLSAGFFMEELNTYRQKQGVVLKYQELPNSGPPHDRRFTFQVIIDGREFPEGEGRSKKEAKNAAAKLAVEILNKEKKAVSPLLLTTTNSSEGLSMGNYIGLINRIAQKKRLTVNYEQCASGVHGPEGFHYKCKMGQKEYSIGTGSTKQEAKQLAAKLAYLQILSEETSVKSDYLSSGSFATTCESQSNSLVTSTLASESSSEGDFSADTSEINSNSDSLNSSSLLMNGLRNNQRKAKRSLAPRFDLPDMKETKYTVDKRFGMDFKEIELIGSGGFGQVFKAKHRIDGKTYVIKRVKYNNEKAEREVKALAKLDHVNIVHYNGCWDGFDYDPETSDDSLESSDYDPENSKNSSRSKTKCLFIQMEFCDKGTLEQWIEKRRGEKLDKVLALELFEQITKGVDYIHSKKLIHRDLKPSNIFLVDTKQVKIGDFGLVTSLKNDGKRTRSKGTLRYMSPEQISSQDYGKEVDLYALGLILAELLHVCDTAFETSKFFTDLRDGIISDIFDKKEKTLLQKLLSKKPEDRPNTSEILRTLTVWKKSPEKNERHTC
T9 sequence (Q8TF76 whole entry): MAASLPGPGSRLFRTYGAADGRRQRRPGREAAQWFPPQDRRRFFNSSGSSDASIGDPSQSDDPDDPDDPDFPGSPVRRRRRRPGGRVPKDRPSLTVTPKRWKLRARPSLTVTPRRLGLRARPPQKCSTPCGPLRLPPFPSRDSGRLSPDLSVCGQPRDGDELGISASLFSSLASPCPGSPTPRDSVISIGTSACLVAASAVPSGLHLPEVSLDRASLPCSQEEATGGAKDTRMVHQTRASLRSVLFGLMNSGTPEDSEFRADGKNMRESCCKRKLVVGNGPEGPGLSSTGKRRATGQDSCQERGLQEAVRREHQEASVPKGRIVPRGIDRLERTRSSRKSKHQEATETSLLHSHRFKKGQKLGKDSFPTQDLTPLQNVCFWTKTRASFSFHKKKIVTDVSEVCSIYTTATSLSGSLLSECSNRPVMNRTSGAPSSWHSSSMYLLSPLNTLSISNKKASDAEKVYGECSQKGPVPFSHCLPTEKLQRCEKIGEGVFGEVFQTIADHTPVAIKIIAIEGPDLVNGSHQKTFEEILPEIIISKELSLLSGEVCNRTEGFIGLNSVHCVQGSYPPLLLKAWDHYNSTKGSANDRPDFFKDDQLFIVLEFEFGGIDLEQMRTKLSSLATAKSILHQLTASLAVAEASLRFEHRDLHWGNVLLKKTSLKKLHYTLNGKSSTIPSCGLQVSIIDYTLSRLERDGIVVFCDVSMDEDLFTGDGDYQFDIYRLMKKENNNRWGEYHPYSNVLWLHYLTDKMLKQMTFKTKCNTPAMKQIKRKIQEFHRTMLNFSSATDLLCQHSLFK
T24 sequence (Q8TDR2 whole entry): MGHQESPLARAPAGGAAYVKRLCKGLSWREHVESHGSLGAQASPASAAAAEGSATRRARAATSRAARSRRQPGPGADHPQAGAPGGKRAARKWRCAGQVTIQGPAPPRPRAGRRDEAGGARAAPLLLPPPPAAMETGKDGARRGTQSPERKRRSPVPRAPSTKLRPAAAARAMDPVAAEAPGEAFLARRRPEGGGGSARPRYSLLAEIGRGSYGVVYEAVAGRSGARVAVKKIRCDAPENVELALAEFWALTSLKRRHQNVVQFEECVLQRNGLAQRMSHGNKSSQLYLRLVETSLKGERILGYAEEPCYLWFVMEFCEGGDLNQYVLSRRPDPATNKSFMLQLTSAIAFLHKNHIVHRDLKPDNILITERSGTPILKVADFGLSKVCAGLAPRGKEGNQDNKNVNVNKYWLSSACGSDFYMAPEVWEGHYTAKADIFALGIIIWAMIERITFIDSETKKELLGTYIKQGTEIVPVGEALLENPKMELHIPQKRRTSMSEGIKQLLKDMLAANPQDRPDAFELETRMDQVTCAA
T7 sequence (O14578 whole entry): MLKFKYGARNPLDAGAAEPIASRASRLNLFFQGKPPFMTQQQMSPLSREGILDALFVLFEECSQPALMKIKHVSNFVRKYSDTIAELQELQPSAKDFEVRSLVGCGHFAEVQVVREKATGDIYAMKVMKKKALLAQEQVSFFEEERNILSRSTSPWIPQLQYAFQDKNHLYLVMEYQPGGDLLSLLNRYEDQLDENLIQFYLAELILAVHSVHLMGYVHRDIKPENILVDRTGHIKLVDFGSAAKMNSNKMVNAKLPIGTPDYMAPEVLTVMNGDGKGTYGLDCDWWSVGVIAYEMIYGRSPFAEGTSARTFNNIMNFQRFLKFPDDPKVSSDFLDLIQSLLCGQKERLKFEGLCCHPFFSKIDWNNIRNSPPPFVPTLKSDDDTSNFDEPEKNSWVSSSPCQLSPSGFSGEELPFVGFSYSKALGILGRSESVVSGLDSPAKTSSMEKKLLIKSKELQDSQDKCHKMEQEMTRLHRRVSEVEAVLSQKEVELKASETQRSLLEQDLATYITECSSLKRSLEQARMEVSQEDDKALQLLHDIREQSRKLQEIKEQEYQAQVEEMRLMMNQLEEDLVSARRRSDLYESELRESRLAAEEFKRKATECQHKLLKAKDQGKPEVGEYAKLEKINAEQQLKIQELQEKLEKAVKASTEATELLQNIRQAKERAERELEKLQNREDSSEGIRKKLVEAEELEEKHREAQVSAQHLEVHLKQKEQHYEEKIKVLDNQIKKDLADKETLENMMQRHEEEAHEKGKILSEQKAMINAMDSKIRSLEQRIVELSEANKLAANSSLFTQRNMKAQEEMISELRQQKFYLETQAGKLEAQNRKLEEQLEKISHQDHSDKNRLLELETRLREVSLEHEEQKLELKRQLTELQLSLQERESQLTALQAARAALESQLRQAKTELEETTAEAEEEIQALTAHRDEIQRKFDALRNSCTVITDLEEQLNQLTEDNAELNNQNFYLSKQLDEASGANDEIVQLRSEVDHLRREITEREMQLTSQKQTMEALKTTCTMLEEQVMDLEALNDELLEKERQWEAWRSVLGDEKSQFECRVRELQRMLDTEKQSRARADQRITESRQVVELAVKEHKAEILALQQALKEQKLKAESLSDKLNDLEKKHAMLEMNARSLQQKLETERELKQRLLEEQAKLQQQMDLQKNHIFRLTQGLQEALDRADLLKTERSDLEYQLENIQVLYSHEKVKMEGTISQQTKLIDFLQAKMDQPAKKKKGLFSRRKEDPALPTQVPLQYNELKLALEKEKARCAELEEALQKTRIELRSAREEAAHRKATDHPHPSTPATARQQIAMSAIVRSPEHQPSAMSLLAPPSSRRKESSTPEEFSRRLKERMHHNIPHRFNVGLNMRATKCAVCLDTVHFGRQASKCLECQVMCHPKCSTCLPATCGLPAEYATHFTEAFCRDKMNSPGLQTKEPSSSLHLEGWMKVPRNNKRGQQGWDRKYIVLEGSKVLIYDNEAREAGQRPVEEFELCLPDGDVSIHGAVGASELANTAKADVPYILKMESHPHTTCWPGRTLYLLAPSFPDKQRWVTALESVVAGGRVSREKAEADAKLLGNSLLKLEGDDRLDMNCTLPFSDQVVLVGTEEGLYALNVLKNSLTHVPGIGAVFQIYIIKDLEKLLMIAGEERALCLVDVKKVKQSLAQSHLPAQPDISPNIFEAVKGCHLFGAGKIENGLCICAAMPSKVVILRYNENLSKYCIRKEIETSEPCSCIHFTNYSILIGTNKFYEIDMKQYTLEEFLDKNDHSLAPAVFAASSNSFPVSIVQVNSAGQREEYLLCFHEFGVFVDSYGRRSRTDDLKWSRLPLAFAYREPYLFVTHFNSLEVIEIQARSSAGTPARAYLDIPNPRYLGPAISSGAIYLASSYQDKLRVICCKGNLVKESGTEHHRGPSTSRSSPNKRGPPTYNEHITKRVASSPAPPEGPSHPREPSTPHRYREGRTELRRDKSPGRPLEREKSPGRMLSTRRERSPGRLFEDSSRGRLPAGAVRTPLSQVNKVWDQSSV
T10 sequence (Q86Z02 whole entry): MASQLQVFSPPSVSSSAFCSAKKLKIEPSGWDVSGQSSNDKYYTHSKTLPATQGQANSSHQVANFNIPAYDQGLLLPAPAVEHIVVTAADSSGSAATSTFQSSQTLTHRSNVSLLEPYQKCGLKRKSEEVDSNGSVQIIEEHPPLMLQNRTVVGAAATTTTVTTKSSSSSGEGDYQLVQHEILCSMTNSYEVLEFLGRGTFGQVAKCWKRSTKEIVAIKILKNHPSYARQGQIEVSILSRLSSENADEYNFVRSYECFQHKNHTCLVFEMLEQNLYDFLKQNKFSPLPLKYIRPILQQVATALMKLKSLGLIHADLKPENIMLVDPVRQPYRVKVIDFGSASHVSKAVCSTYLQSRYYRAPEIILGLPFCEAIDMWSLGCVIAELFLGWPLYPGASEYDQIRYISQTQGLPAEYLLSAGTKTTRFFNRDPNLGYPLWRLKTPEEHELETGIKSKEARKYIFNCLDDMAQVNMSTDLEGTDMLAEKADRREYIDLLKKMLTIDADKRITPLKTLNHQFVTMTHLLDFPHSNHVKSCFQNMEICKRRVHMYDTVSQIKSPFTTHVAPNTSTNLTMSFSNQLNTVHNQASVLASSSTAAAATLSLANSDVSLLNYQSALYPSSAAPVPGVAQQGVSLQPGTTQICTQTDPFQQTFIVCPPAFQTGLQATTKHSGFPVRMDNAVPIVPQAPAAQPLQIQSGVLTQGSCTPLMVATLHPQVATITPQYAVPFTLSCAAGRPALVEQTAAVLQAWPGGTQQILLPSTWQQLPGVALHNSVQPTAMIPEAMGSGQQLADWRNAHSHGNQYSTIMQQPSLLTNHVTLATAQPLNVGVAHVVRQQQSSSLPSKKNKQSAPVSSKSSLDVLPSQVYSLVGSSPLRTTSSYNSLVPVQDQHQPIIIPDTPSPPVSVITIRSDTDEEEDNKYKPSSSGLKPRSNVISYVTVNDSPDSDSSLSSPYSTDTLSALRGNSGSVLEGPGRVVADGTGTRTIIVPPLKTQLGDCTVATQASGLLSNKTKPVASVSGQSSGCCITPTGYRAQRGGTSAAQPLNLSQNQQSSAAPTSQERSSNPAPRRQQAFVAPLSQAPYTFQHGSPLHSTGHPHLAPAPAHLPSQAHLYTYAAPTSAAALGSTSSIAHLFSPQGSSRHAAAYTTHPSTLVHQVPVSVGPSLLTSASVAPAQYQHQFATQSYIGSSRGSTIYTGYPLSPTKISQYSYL

With `Cc1cc(Nc2ccc(F)c(CC3(C(=O)N4CCC(F)(CN5CCN(c6ccc(N7CCC(=O)NC7=O)cn6)CC5)CC4)CCN(Cc4cccc(Cl)c4F)CC3)n2)n[nH]1` [SK5527] the remaining binding at 0.1 µM ([1]; 100 nM) was 70%, the remaining binding at 1 µM ([1]; 1000 nM) was 34% and the remaining binding at 0.1 µM ([2]; 100 nM) was 63%. The remaining binding at 1 µM ([2]; 1000 nM) was 36%, the remaining binding at 0.1 µM (ACVR1B; 100 nM) was 100% and the remaining binding at 1 µM (ACVR1B; 1000 nM) was 100%. The remaining binding at 0.1 µM (AURKB; 100 nM) was 100%, the remaining binding at 1 µM (AURKB; 1000 nM) was 53% and the remaining binding at 0.1 µM (CDK2; 100 nM) was 100%. For the same compound, the remaining binding at 1 µM (CDK2; 1000 nM) was 94%, the remaining binding at 0.1 µM (CDKL1; 100 nM) was 99% and the remaining binding at 1 µM (CDKL1; 1000 nM) was 94%. The remaining binding at 0.1 µM (CIT; 100 nM) was 100%, the remaining binding at 1 µM (CIT; 1000 nM) was 100% and the remaining binding at 0.1 µM (EGFR(G719C); 100 nM) was 87%. It also gave a remaining binding at 1 µM (EGFR(G719C); 1000 nM) of 94%, a remaining binding at 0.1 µM (HASPIN; 100 nM) of 79% and a remaining binding at 1 µM (HASPIN; 1000 nM) of 70%. It also gave a remaining binding at 0.1 µM (HIPK1; 100 nM) of 81%, a remaining binding at 1 µM (HIPK1; 1000 nM) of 92% and a remaining binding at 0.1 µM (HIPK3; 100 nM) of 100%. The remaining binding at 1 µM (HIPK3; 1000 nM) was 66%, the remaining binding at 0.1 µM (IRAK1; 100 nM) was 94% and the remaining binding at 1 µM (IRAK1; 1000 nM) was 76%. For the same compound, the remaining binding at 0.1 µM (MEK3; 100 nM) was 100%, the remaining binding at 1 µM (MEK3; 1000 nM) was 82% and the remaining binding at 0.1 µM (MLK3; 100 nM) was 85%. The remaining binding at 1 µM (MLK3; 1000 nM) was 100%, the remaining binding at 0.1 µM (MYO3B; 100 nM) was 100% and the remaining binding at 1 µM (MYO3B; 1000 nM) was 100%. For the same compound, the remaining binding at 0.1 µM (NEK2; 100 nM) was 90%, the remaining binding at 1 µM (NEK2; 1000 nM) was 91% and the remaining binding at 0.1 µM (PFCDPK1(P.falciparum); 100 nM) was 87%. It also gave a remaining binding at 1 µM (PFCDPK1(P.falciparum); 1000 nM) of 81%, a remaining binding at 0.1 µM (PFPK5(P.falciparum); 100 nM) of 89% and a remaining binding at 1 µM (PFPK5(P.falciparum); 1000 nM) of 80%. It also gave a remaining binding at 0.1 µM (PIP5K1C; 100 nM) of 100%, a remaining binding at 1 µM (PIP5K1C; 1000 nM) of 94% and a remaining binding at 0.1 µM (PRKR; 100 nM) of 100%. It also gave a remaining binding at 1 µM (PRKR; 1000 nM) of 91%, a remaining binding at 0.1 µM (RIOK1; 100 nM) of 100% and a remaining binding at 1 µM (RIOK1; 1000 nM) of 100%. It also gave a remaining binding at 0.1 µM ([3]; 100 nM) of 88%, a remaining binding at 1 µM ([3]; 1000 nM) of 92% and a remaining binding at 0.1 µM ([4]; 100 nM) of 93%. For the same compound, the remaining binding at 1 µM ([4]; 1000 nM) was 79%, the remaining binding at 0.1 µM (STK35; 100 nM) was 99% and the remaining binding at 1 µM (STK35; 1000 nM) was 80%. It also gave a remaining binding at 0.1 µM (STK36; 100 nM) of 71%, a remaining binding at 1 µM (STK36; 1000 nM) of 94% and a remaining binding at 0.1 µM (TLK1; 100 nM) of 88%. For the same compound, the remaining binding at 1 µM (TLK1; 1000 nM) was 74%, the remaining binding at 0.1 µM (TNNI3K; 100 nM) was 73% and the remaining binding at 1 µM (TNNI3K; 1000 nM) was 70%. The remaining binding at 0.1 µM (ULK2; 100 nM) was 89%, the remaining binding at 1 µM (ULK2; 1000 nM) was 78% and the remaining binding at 0.1 µM (VEGFR2; 100 nM) was 85%. The remaining binding at 1 µM (VEGFR2; 1000 nM) was 65%, the remaining binding at 0.1 µM (WEE2; 100 nM) was 79% and the remaining binding at 1 µM (WEE2; 1000 nM) was 88%. It also gave a remaining binding at 0.1 µM (YES; 100 nM) of 73%, a remaining binding at 1 µM (YES; 1000 nM) of 70% and a remaining binding at 0.1 µM (YSK1; 100 nM) of 100%. For the same compound, the remaining binding at 1 µM (YSK1; 1000 nM) was 98%.
